In patent US7786142B2, “Heterocyclic compounds as pSTAT3/IL-6 inhibitors” (Orchid Research Laboratories, Ltd., priority 2005, dated 2010):
Entries after “also recorded” stand apart in the source; their conditions may differ.

Experiments:
NCIH460 cells = test: Anti-cancer screen (MTT), NCIH460 cells; type: cell-based; conditions: Homo sapiens, NCI-H460, NCIH460, 48 hours, concentrations tested 0.01-100 μM; for CC50: read-out: LC50 (the source's name)
Procedure: (§1) Experimental drugs are screened for anti-cancer activity in three cell lines for their GI50, TGI and LC50 values (using five concentrations for each compound). The cell lines are maintained in DMEM containing 10% fetal bovine serum. 96 well micro titer plates are inoculated with cells in 100 μL for 24 hours at 37° C., 5% CO2, 95% air and 100% relative humidity. 5000 HCT116 cells/well, 5000 NCIH460 cells/well and 5000 U251 cells/well are plated. A separate plate with these cell lines is also inoculated to determine cell viability before the addition of the compounds (T0), (See Table I).
(§2) Following 24-hours incubation, experimental drugs are added to the 96 well plates. Each plate contains one of the above cell lines and the following in triplicate: five different concentrations (0.01, 0.1, 1, 10 and 100 μM) of four different compounds, appropriate dilutions of a cytotoxic standard and control (untreated) wells. Compounds are dissolved in DMSO to make 20 mM stock solutions on the day of drug addition and frozen at −20° C. Serial dilutions of these 20 mM stock solutions are made in complete growth medium such that 100 μL of these drug solutions in medium, of final concentrations equaling 0.01, 0.1, 1, 10 and 100 μM can be added to the cells in triplicate. Standard drugs whose anti-cancer activity has been well documented and which are regularly used are Doxorubicin and SAHA, (See Table I).
(§3) For T0 measurement, 24 hours after seeding the cells, 10 μL of 3-(4,5-Dimethyl-2-thiazolyl)-2,5-diphenyl-2H-tetrazolium (MTT) solution per well is added and incubation carried out for 3 hours at 37° C., 5% CO2, 95% air and 100% relative humidity, protected from light. Cells incubated with compounds for 48 hours are treated similarly except with the addition of 20 μL MTT solution per well and a subsequent incubation under the same conditions. After 3 hours of MTT incubation, well contents are aspirated carefully followed by addition of 150 μL DMSO per well. Plates are agitated to ensure solution of the formazan crystals in DMSO and absorbance read at 570 nm, (See Table I).
(§4) Percent growth is calculated for each compound's concentration relative to the control and zero measurement wells (T0; viability right before compound addition). If a test well's O.D. value is greater than the T0 measurement for that cell line % Growth=(test−zero)/(control−zero)×100

MDAMB-231/U 251 = test: Anti-cancer screen (MTT), MDAMB-231/U 251 cells; type: cell-based; conditions: MDAMB-231/U 251, 48 hours, concentrations tested 0.01-100 μM; for CC50: read-out: LC50 (the source's name)
Procedure: as §1, §2, §3, §4

pSTAT3 = pSTAT3 inhibition (Western blot in DU 145 / SKOV-3 cells; ELISA in HepG2 cells); type: cell-based; conditions: in words; FIGS. 1 and 2
Procedure: Western blot analysis was performed as described by Kammer W et. al (J Biol Chem 271, 23634-23637, and J Biol Chem 273, 31222-31229). Briefly, 60 μg of whole cell extract was solubilized in Laemmeli buffer (50 mM Tris/HCl, pH 6.8, 2% SDS, 10% glycerol, 1 mM DTT, 1× Protease inhibitor cocktail, SET-3 (Calbiochem), 1 mM Sodium Ortho-vanadate) boiled for 5-10 minutes, and separated on a 10 or 12% acrylamide SDS gel. After protein transfer, the nitrocellulose membranes were blocked in blocking buffer for 2 hour (1×TBS, 0.1% Tween-20, 5% BSA). Membranes were incubated for 20 hours in blocking buffer containing, STAT3 P-Tyr705 (Santa Cruz Biotech), STAT3 (H-190, Santa Cruz Biotech) and Actin (C-2, Santa Cruz Biotech) antibody at 1:300 dilution. Detection was performed with HRP conjugated antimouse/antirabbit IgG (Santa Cruz Biotech) at a dilution of 1:3,000 for 1 hour. Visualization was performed using an Enhanced Chemiluminescence detection kit (Amersham). See Appended Diagrams: FIGS. 1 and 2. […]
Capture Antibody was diluted to a working concentration of 2.0 μg/mL in PBS. […] The plates were made ready after 2-3 washes with wash buffer. […] The reaction was stopped by adding 50 μl of stop solution to each well and the OD was determined using a microplate reader at 450 nm.

[1] = tested on: NCIH460, HCT116, MDAMB-231/U 251; test: Anti-cancer screen, mean GI50 over the cell lines; type: cell-based
Procedure: as §1, §2, §3, §4

IL-6 = IL-6 in culture supernatants of NCIH 460 cells (ELISA); type: cell-based, Human; conditions: NCIH 460, 5 hours
Procedure: Human Lung Cancer cell line (NCIH 460) is used for IL-6 measurement. 5000 cells/well were seeded in a 96 well plate and incubated in CO2 incubator at 37° C. for 24 hours. After 24 hours of incubation the medium from all wells were completed removed and added 100 μl of fresh DMEM containing 10% FCS. 100 μl of different concentrations of the drug were added and incubated for 5 hours in CO2 incubator at 37° C. After 5 hours of incubation the supernatants were collected and stored at −80° C. The concentration of IL-6 in the supernatant was measured using ELISA kit and the IC50 value of the compound was determined from the dose response curve, (See Table II).

NCI H460 Xenograft = test: In-vivo anti-cancer activity, NCI H460 xenograft model; design: species or system SCID mice; conditions: for in-vivo anti-cancer activity: NCI H460 Xenograft model, in words
Procedure: Experiments were carried out using 6-8 week old female athymic SCID (Severe Combined Immune Deficient) mice. The mice were kept in laminar flow rooms (housed in Individually Ventilated Cages) at constant temperature and humidity. They had free access to food and water. Tumors were obtained form ATCC and maintained by s.c. passages of tumor fragments (about 2×2×2 mm) in healthy mice according to standard reported procedures. Each experimental group included six/eight mice bearing bilateral tumors. Tumors were implanted on day 0, and tumor growth was followed by biweekly measurements of tumor diameters with a Vernier caliper. Tumor Volume (TV) was calculated according to the following formula: TV (mm^3)=d^2 XD/2, where d and D are the shortest diameter and the longest diameter of the tumor, respectively. The drug treatment started when tumors were just measurable (Mean TV=150-200 mm^3).
(§5) All test compound/standard drugs were delivered by gavage in a volume of 10 ml/kg. Drugs were administered every day for single time to a period of 21 days. Control mice were treated with the drug solvent/vehicle. Tumor size is measured every alternate days and body weight is recorded daily.
(§6) • a) Tumor Volume Inhibition (TVI): A TVI value higher than 80% is indicative of active compounds. • b) T/C % is also another indicator for the activity. A reproducible 20% T/C is considered as therapeutically active. • c) Log Cell Kill (LCK): A LCK value greater than 1 is indicative of active compounds. • d) Relative Tumor Volume (RTV), Tumor Delay and % Tumor volume change are also considered as valuable additional parameters for assessment. • e) Toxic effects of drug treatment were assessed by Body Weight Loss % • f) Lethal toxicity was defined as any death in treated groups occurring before any control death. Mice were inspected daily for mortality and toxic clinical signs.

HCT116 cells = test: Anti-cancer screen (MTT), HCT116 cells; type: cell-based; conditions: Homo sapiens, HCT-116, HCT116, 48 hours, concentrations tested 0.01-100 μM
Procedure: as §1, §2, §3, §4

Jak2/Stat3 signaling = conditions: literature (Burdelya et al., 2002; Meydan et al., 1996; Constantin et al., 1998); cited from earlier work
[2] = mouse, in vivo
Procedure: as §5, §6

SMILES | GI50 (NCIH460 cells) [µM] | IC (TGI) (NCIH460 cells) [µM] | CC50 (NCIH460 cells) [µM] | GI50 (MDAMB-231/U 251) [µM] | IC (TGI) (MDAMB-231/U 251) [µM] | CC50 (MDAMB-231/U 251) [µM] | pSTAT3 inhibition (pSTAT3) | GI50 [1] [µM] | inhibition at 0.1 µM (IL-6; Homo sapiens, NCI-H460, 0.1 μM) [%] | inhibition at 1 µM (IL-6; Homo sapiens, NCI-H460, 1 μM) [%] | IC50 (IL-6; Homo sapiens, NCI-H460, read-out: IL-6 Inhibition IC50) [µM] | in-vivo anti-cancer activity (NCI H460 Xenograft) | inhibition against NCI H460 Xenograft model (NCI H460 Xenograft; SCID mice, gavage, every day for 21 days) [%] | GI50 (HCT116 cells) [µM] | IC (TGI) (HCT116 cells) [µM] | LC50 (concentration for 50% net cell kill relative to T0) (HCT116 cells) [µM] | concentration needed to show Jak/Stat3 signaling inhibition and anti-tumor activity (Jak2/Stat3 signaling) [µM] | body weight loss [2] | IL-6 Inhibition IC50 (μM) (IL-6)
COc1ccc(CNCC(O)COc2cccc3[nH]c4ccccc4c23)c(OC)c1 (racemic) [Example 1, 1-(9H-carbazol-4-yloxy)-3-[(2,4-dimethoxybenzyl)amino]propan-2-ol] | 0.78 | 18 | 62 | 5 | 9.8 | 60 | work through pSTAT3 inhibition; also recorded: mechanism of action was through pSTAT3 inhibition | 4.8 | 45.7 | 55.3 | 5 | good in-vivo anti-cancer activity | 52 | 8.5 | 39 | 79 | – | – | –
N#C/C(=C/c1ccc(O)c(O)c1)C(=O)NCc1ccccc1 [AG490] | – | – | – | – | – | – | – | – | – | – | – | – | – | – | – | – | 50 to 100 | – | –
COc1ccc(CNC[C@@H](O)COc2cccc3[nH]c4ccccc4c23)c(OC)c1 [Example 24, (2R)-1-(9H-carbazol-4-yloxy)-3-[(2,4-dimethoxy-benzyl)amino]propan-2-ol] | 0.76 | 53 | 67 | 18 | 51 | 79 | – | 9 | – | – | – | good anti-cancer activity | – | 8.3 | 53 | 80 | – | no body weight loss was observed | No activity
